In patent publication US20240262814A1, “MODULATORS OF TREX1” (Constellation Pharmaceuticals, Inc., priority 2021, published 2024):

Experiments:
human TREX1 = target: T1, human TREX1 (Homo sapiens, UniProt Q9NSU2); test: hTREX1 Biochemical Assay (fluorescence, dsDNA substrate degradation); conditions: full length human TREX1, 4 h pre-incubation, 18 h reaction at 25° C.
T1 construct: N-terminally His-Tev tagged full length human TREX1; made in house; host or cells: E. coli
T1 sequence (Q9NSU2 1-314): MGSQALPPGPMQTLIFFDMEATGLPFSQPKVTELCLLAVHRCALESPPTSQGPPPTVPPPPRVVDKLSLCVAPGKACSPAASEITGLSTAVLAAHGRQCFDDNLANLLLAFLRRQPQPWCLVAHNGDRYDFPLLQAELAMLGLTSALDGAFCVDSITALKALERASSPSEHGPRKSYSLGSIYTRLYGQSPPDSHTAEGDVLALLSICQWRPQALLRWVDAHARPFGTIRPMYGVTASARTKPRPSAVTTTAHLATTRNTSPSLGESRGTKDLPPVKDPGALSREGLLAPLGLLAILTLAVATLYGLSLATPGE
Description: (§1) Degradation of the dsDNA liberates free fluorophore to produce a fluorescent signal. Specifically, 7.5 μL of N-terminally His-Tev tagged full length human TREX1 (expressed in E. coli and purified in house) in reaction buffer (50 mM Tris, 150 mM NaCl, 2 mM DTT, 0.1 mg/mL BSA, 0.01% (w/v) Tween-20, 5 mM MgCl2, pH 7.4) was added to a 384-well Black ProxiPlate Plus (PerkinElmer) which already contained compound (150 nL) at varying concentrations as a 10 point dose-response in DMSO. The plate was incubated at 25° C. for 4 hours. Reactions were initiated by adding 7.5 μL of dsDNA substrate (Strand A: 5′ TEX615/GCT AGG CAG 3′; Strand B: 5′ CTG CCT AGC/IAbRQSp (Integrated DNA Technologies)) in reaction buffer. Final concentrations were 4 pM TREX1, 60 nM dsDNA substrate in reaction buffer with 1.0% DMSO (v/v). After 18 hours at 25° C., reactions were quenched by the addition of 2 p L of 500 mM EDTA. Final concentrations in the quenched reaction were 3.5 pM TREX1, 53 nM DNA and 59 mM EDTA in a volume of 17 μL. After a 5-minute incubation at room temperature, plates were read in an EnVision plate reader (PerkinElmer) measuring fluorescence at 615 nm following excitation w/ 570 nm light. IC50 values were calculated by comparing the measured fluorescence at 615 nm relative to control wells pre-quenched w/ EDTA (100% inhibition) and no inhibitor (0% inhibition) controls as using non-linear least square four parameter fits and either Genedata or GraphPad Prism (GraphPad Software, Inc.).

mouse TREX1 = target: T2, mouse TREX1 (Mus musculus, UniProt Q91XB0); test: mTREX1 Biochemical Assay (fluorescence, dsDNA substrate degradation); conditions: full length mouse TREX1, 4 h pre-incubation, 18 h reaction at 25° C.
T2 construct: N-terminally His-Tev tagged full length mouse TREX1; made in house; host or cells: E. coli
T2 sequence (Q91XB0 1-314): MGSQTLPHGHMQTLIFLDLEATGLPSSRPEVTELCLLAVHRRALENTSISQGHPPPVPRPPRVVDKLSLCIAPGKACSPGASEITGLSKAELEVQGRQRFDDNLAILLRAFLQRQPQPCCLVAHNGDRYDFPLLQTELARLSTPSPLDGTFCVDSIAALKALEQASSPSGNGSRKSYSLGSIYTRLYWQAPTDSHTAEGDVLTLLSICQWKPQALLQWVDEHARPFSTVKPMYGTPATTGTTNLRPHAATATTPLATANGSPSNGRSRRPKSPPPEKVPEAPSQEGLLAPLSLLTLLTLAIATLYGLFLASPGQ
Description: as §1, with “Specifically, 7.5 p L of N-terminally” for “Specifically, 7.5 μL of N-terminally”, “full length mouse TREX1 (expressed” for “full length human TREX1 (expressed”, “concentrations were 6 pM TREX1,” for “concentrations were 4 pM TREX1,”, “reaction were 5.3 pM TREX1,” for “reaction were 3.5 pM TREX1,”, “of 17 p L. After a” for “of 17 μL. After a”

human TREX2 = target: T3, human TREX2 (Homo sapiens, UniProt Q9BQ50); test: hTREX2 Biochemical Assay (selectivity hTREX1 vs hTREX2); conditions: biochemical selectivity for hTREX1 vs hTREX2
T3 construct: human TREX2 (residues M44-A279, expressed in E. coli); made in house; host or cells: E. coli
T3 sequence (Q9BQ50 44-279 isoform Q9BQ50-1): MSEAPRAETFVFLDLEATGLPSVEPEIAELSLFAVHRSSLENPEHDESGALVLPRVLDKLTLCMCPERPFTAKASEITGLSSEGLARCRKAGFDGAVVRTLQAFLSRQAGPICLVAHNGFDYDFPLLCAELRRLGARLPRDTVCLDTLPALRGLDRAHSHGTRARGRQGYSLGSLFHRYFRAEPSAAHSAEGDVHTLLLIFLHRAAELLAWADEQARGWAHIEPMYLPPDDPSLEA
Description: Degradation of the dsDNA liberates free fluorophore to produce a fluorescent signal. Specifically, 7.5 p L of N-terminally His-Tev tagged human TREX2 (residues M44-A279, expressed in E. coli and purified in house) in reaction buffer (50 mM Tris, 150 mM NaCl, 2 mM DTT, 0.1 mg/mL BSA, 0.01% (w/v) Tween-20, 5 mM MgCl2, pH 7.4) was added to a 384-well Black ProxiPlate Plus (PerkinElmer) which already contained compound (150 nL) at varying concentrations as a 10 point dose-response in DMSO. The plate was incubated at 25° C. for 4 hours. Reactions were initiated by adding 7.5 μL of dsDNA substrate (Strand A: 5′ TEX615/GCT AGG CAG 3′; Strand B: 5′ CTG CCT AGC/IAbRQSp (IDT)) in reaction buffer. Final concentrations were 50 pM TREX2, 60 nM dsDNA substrate in reaction buffer with 1.0% DMSO (v/v). After 18 hours at 25° C., reactions were quenched by the addition of 2 μL of 500 mM EDTA. Final concentrations in the quenched reaction mixture were 44 pM TREX2, 53 nM DNA and 59 mM EDTA in a volume of 17 μL. After a 5-minute incubation at room temperature, plates were read in an EnVision plate reader (PerkinElmer) measuring fluorescence at 615 nm following excitation w/ 570 nm light. IC50 values were calculated by comparing the measured fluorescence at 615 nm relative to control wells pre-quenched w/ stop buffer (100% inhibition) and no inhibitor (0% inhibition) controls as using non-linear least square four parameter fits and either Genedata or GraphPad Prism (GraphPad Software, Inc.).

Row | IC50 (human TREX1) [nM] | IC50 (mouse TREX1) [nM] | hTREX1 vs hTREX2 selectivity (human TREX2) | SMILES
1 | 1 to 10 | > 10 | C (C = >50 fold selective for hTREX1) | CC(c1nc(C(=O)Nc2cnoc2)c(O)c(=O)n1C)C(c1ccc(F)c(F)c1)c1ccccc1C#N (single isomer, unassigned) [Example 12 Isomer 1]
2 | > 100 | > 10 |  | CC(c1nc(C(=O)Nc2cnoc2)c(O)c(=O)n1C)C(c1ccccc1)c1ccc(Cl)cc1C#N (single isomer, unassigned) [Example 9 Isomer 3]
3 | > 100 | > 10 |  | CC(c1nc(C(=O)Nc2cnoc2)c(O)c(=O)n1C)C(c1ccccc1)c1ccc(F)cc1C#N (single isomer, unassigned) [Example 7 Isomer 3]
4 | 10 to 100 | > 10 | A (A = <25 fold selective for hTREX1) | CC(c1nc(C(=O)Nc2cnoc2)c(O)c(=O)n1C)C(c1ccc(F)c(F)c1)c1ccccc1C#N (single isomer, unassigned) [Example 12 Isomer 4]
5 | 10 to 100 | > 10 |  | CC(c1nc(C(=O)Nc2cnoc2)c(O)c(=O)n1C)C(c1ccccc1)c1cc(C(=O)N(C)C)ccc1C#N (single isomer, unassigned) [Example 17 Isomer 4]
6 | > 100 | > 10 |  | C[C@H](c1nc(C(=O)Nc2cnoc2)c(O)c(=O)n1C)[C@H](c1ccccc1)c1ccccc1C(F)(F)F (single isomer, unassigned) [Example 14 Isomer 3, 5-Hydroxy-N-(isoxazol-4-yl)-1-methyl-6-oxo-2-(1-phenyl-1-(2-(trifluoromethyl)phenyl)propan-2-yl)-1,6-dihydropyrimidine-4-carboxamide]
7 | 1 to 10 | > 10 |  | C[C@H](c1nc(C(=O)Nc2cnoc2)c(O)c(=O)n1C)[C@H](c1ccccc1)c1ccc(C(=O)N(C)C)cc1C#N (single isomer, unassigned) [Example 16 Isomer 1, 2-(1-(2-cyano-4-(dimethylcarbamoyl)phenyl)-1-phenylpropan-2-yl)-5-hydroxy-N-(isoxazol-4-yl)-1-methyl-6-oxo-1,6-dihydropyrimidine-4-carboxamide]
8 | > 100 | > 10 |  | CC(c1nc(C(=O)Nc2cnoc2)c(O)c(=O)n1C)C(c1cc(F)cc(F)c1)c1ccccc1C#N (single isomer, unassigned) [Example 11 Isomer 1]
9 | > 100 | > 10 |  | CC(c1nc(C(=O)Nc2cnoc2)c(O)c(=O)n1C)C(c1ccccc1)c1cc(Cl)ccc1C#N (single isomer, unassigned) [Example 8 Isomer 1]
10 | > 100 | > 10 |  | CC(c1nc(C(=O)Nc2cnoc2)c(O)c(=O)n1C)C(c1ccccc1)c1cc(C(=O)N(C)C)ccc1C#N (single isomer, unassigned) [Example 17 Isomer 2]
11 | > 100 | > 10 |  | CC(c1nc(C(=O)Nc2cnoc2)c(O)c(=O)n1C)C(c1ccccc1)c1cc(F)ccc1C#N (single isomer, unassigned) [Example 6 Isomer 2]
12 | > 100 | > 10 |  | CC(c1nc(C(=O)Nc2cnoc2)c(O)c(=O)n1C)C(c1ccc(F)c(F)c1)c1ccccc1C#N (single isomer, unassigned) [Example 12 Isomer 2]
13 | > 100 | > 10 |  | CC(c1nc(C(=O)Nc2cnoc2)c(O)c(=O)n1C)C(c1ccc(F)cc1F)c1ccccc1C#N (single isomer, unassigned) [Example 13 Isomer 4]
14 | > 100 | > 10 |  | C[C@H](c1nc(C(=O)Nc2cnoc2)c(O)c(=O)n1C)[C@H](c1ccccc1)c1ccc(C(=O)N(C)C)cc1C#N (single isomer, unassigned) [Example 16 Isomer 2, 2-(1-(2-cyano-4-(dimethylcarbamoyl)phenyl)-1-phenylpropan-2-yl)-5-hydroxy-N-(isoxazol-4-yl)-1-methyl-6-oxo-1,6-dihydropyrimidine-4-carboxamide]
15 | > 100 | > 10 |  | Cn1c([C@@H](CF)C(c2ccccc2)c2ccccc2)nc(C(=O)Nc2cnoc2)c(O)c1=O (single isomer, unassigned) [Example 18 Isomer 2, 2-(3-fluoro-1,1-diphenylpropan-2-yl)-5-hydroxy-N-(isoxazol-4-yl)-1-methyl-6-oxo-1,6-dihydropyrimidine-4-carboxamide]
16 | 1 to 10 | > 10 |  | CC(c1nc(C(=O)Nc2cnoc2)c(O)c(=O)[nH]1)C(c1ccccc1C#N)c1ccccc1C#N (single isomer, unassigned) [Example 5 Isomer 2, 2-(1,1-bis(2-cyanophenyl)propan-2-yl)-5-hydroxy-N-(isoxazol-4-yl)-6-oxo-1,6-dihydropyrimidine-4-carboxamide]
